Assay results from ChEMBL document CHEMBL3886201, “Compositions and methods for the treatment of malaria” (2016).

Assays:
Plasmepsin II = Plasmepsin II (Plasmodium falciparum, UniProt P46925); test: Enzyme Inhibition Assay : Plasmepsin-2 (PM-2; Plm II) and Plasmepsin (PM-4; Plm IV) expression and purification was performed following the published protocols (Istvan E S and Goldberg D E, 2005). The final purified protein was activated by diluting the protein to 0.3 mg/mL in activating buffer (0.1 M citrate pH 4.5, 0.1% Tween-20, 50 mM dithiothreitol) and incubated at room temperature for 40 min, then the activated enzyme was diluted in assay buffer (50 mM sodium acetate pH 4.7, 0.01% Tween-20). The enzymatic inhibition reaction was performed in 384 well plates with a total volume of 20 μl. 10 μl of diluted PM-2 or PM-4 enzyme was added to the 384-well plate except blank wells (blank wells add 10 μL of assay buffer) and 20 nL of serials of diluted 1000× compounds were added to the wells with 520 Echo® Liquid Handling System (Labcyte Inc.). 10 μL PM-2 peptide substrate (AnaSpec, Cat#, 62050) with assay buffer was then added to final concentration of 20 μM to start the reaction.
Plasmepsin II, sequence (P46925 whole entry): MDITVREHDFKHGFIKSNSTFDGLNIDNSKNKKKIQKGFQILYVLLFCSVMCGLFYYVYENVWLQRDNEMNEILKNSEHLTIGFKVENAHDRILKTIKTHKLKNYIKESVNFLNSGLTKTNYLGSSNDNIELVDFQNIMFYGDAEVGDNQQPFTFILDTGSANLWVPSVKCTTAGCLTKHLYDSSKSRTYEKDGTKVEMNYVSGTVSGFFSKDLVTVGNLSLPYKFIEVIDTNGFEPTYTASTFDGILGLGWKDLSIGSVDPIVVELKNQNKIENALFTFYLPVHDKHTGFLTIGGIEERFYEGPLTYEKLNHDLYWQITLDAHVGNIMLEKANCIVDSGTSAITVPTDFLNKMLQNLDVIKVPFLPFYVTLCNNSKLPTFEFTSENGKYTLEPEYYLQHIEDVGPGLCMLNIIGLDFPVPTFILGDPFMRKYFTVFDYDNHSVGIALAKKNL

Beta-secretase 1 = Beta-secretase 1 (Homo sapiens, UniProt P56817); test: The enzymatic inhibition activity assays were determined using the fluorescence resonance energy transfer (FRET) assay. The assays were performed in a 384-well plate format. […] The concentration of Cathepsin D was 20 ng/μL, and 1 ng/μL of Cathepsin E was used. CatD and CatE were activated by incubation in assay buffer (0.1 M NaOAc, 0.2 M NaCl, pH 3.5) at room temperature for 30 min. Subsequently, the rhBACE-1 substrate (R&D Systems, catalog# ES004), the Cathepsin D and Cathepsin E substrate (R&D Systems, Catalog # ES001) were added accordingly to final concentration
Beta-secretase 1, sequence (P56817 whole entry): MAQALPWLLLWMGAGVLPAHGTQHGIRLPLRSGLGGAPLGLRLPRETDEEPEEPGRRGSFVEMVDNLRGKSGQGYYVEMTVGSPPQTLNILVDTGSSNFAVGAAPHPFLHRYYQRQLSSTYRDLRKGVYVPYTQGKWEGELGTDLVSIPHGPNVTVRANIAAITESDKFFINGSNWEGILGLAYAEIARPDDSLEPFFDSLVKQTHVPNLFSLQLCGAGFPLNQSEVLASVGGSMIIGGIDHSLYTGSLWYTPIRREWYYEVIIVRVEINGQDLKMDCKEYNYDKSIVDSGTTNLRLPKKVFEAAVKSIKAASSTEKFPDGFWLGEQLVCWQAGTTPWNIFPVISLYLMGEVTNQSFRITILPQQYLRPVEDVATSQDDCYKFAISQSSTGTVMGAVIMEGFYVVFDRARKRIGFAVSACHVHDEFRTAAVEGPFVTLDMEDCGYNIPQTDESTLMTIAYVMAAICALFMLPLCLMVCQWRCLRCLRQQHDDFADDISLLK

Row | Structure (SMILES) | IC50 (Plasmepsin II) [nM] | IC50 (Beta-secretase 1) [nM]
1 | N=C1NC(c2ccccc2)(c2cccc(Oc3ccccc3)c2)C(=O)N1C1CCCCC1 (stereo not drawn) | 2.2 | –
2 | N=C1NC(c2cccc(-c3cccnc3)c2)(C2CC2)C(=O)N1C1CCCCC1 (stereo not drawn) | 126 | 16800
